# Results from patent publication US12297192B2, “Crystal form of pyrimidine sulfonamide compound and preparation method therefor” (WUXI BIOCITY BIOPHARMACEUTICS CO., LTD., priority 2019, dated 2025).
# Legend:
# CYP1A2 = molecular target: T1, CYP1A2 (Homo sapiens, UniProt P05177); assay: Human liver microsomal cytochrome P450 isozyme inhibition; assay type: in vitro ADME; conditions: human liver microsomes
# T1 construct: Mixed human liver microsomes (HLM) were purchased from Corning Inc; tissue Corning Inc; host or cells: pooled human liver microsomes
# T1 sequence (P05177 1-516): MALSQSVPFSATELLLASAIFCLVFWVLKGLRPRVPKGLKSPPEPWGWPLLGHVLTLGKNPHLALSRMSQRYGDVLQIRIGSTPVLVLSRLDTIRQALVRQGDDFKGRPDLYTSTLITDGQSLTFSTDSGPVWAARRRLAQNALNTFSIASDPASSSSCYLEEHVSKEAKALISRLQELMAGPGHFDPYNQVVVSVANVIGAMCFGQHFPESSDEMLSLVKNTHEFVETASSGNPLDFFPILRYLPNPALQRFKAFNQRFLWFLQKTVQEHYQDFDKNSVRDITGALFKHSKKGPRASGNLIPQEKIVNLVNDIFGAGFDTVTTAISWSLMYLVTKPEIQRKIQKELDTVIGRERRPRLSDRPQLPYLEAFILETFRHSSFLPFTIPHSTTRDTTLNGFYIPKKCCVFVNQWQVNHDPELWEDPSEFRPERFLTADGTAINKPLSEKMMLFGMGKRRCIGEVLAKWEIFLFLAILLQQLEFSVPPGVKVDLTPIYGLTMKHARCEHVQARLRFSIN
# Experimental: (§1) The aim of the project was to evaluate the inhibitory activity of the test article against human liver microsomal cytochrome P450 isozymes (CYP1A2, CYP2C9, CYP2C19, CYP2D6 and CYP3A4) using a 5-in-1 probe substrate for CYP isozymes.
# (§2) Mixed human liver microsomes (HLM) were purchased from Corning Inc. (Steuben, New York, USA) and stored at less than −80° C. prior to use. A diluted series of concentrations of the stock solution of the test article was added to an incubation system containing human liver microsomes, probe substrate and cofactors of the circulatory system. The control without the test article but with solvent was used as the enzyme activity control (100%). The concentration of metabolites generated by the probe substrate in the samples was determined by liquid chromatography-tandem mass spectrometry (LC-MS/MS). A non-linear regression analysis of the mean percentage activity of the test article against concentration was performed using SigmaPlot (V.11). The IC50 values were calculated using a three- or four-parameter inverse hyperbolic logarithmic function.
# CYP2C19 = molecular target: T2, CYP2C19 (Homo sapiens, UniProt P33261); assay: as above; assay type: in vitro ADME; conditions: human liver microsomes
# T2 construct: Mixed human liver microsomes (HLM) were purchased from Corning Inc; tissue Corning Inc; host or cells: pooled human liver microsomes
# Experimental: as §1, §2
# CYP2C9 = molecular target: T3, CYP2C9 (Homo sapiens, UniProt P11712); assay: as above; assay type: in vitro ADME; conditions: human liver microsomes
# T3 construct: Mixed human liver microsomes (HLM) were purchased from Corning Inc; tissue Corning Inc; host or cells: pooled human liver microsomes
# Experimental: as §1, §2
# [1] = Solid stability test for Crystal Form A (high temperature, high humidity, strong light, accelerated conditions); assay type: physicochemical
# Description: See Table 3 below for chromatographic conditions for the HPLC method of solid stability testing:
# According to the Guideline for Stability Testing of APIs and Formulations (Chinese Pharmacopoeia 2015 Edition, Volume IV, General Principles 9001).
# After being placed under high temperature and high humidity conditions, samples were placed in a desiccator for examination. On the 5th, 10th and 30th days, samples were taken for testing, and the results were compared with the initial test results on day 0. Samples placed under strong light condition were covered with a transparent lid and sealed with a sealing film and samples were taken on the 5th and 10th for testing and the results were compared to the initial test results on day 0. […] Each aliquot was placed in a double-layer LDPE bag. Each layer of LDPE bag was sealed by tying, respectively. Then the LDPE bag was placed in an aluminum foil bag and heat sealed and placed at 25° C./60% relative humidity. Samples were taken at the 3th month, 6th month, 9th month and 12th month, and placed under 40° C./75% relative humidity. Samples were taken at the 1st month, 2^ed month, 3th month and 6th month, respectively. The test results were compared with the initial test results on day 0.
# [2] = Stability test of Crystal Form A in different solvents (XRPD after 3 days stirring in saturated solutions); assay type: physicochemical; conditions: for Crystalline (form by XRPD, 3 days later) / Status (3 days later): 0.3 mL
# Experimental: The crude compound of formula (I) was dissolved in dichloromethane at 38-40° C., filtered while hot, concentrated under reduced pressure to dryness to obtain mixed crystals of formula (I). Saturated solutions of mixed crystals of the compound of formula (I) in THF and ACN were prepared at 50° C., respectively.
# The suspension was centrifuged. The precipitate was taken and dried overnight in a vacuum oven at 30° C. The dried product was subjected to XRPD to determine the status of the crystal forms.
# [3] = 25° C./60% relative humidity, sealed, 3 months
# [4] = 25° C./60% relative humidity, sealed, 6 months
# [5] = 25° C./60% relative humidity, sealed, 9 months
# [6] = 25° C./60% relative humidity, sealed, 12 months
# [7] = 40° C., 75% relative humidity, sealed, 1 month
# [8] = 40° C., 75% relative humidity, sealed, 2 months
# [9] = 40° C., 75% relative humidity, sealed, 3 months
# [10] = 40° C., 75% relative humidity, sealed, 6 months
# [11] = High humidity (room temperature/92.5% relative humidity, open), 5 days
# [12] = High humidity (room temperature/92.5% relative humidity, open), 10 days
# [13] = High humidity (room temperature/92.5% relative humidity, open), 30 days
# [14] = High temperature (60° C., open), 5 days
# [15] = High temperature (60° C., open), 10 days
# [16] = High temperature (60° C., open), 30 days
# [17] = Strong light (4500 ± 500 lux-hr, 90 μw-hr/cm^2, sealed), 5 days
# [18] = Strong light (4500 ± 500 lux-hr, 90 μw-hr/cm^2, sealed), 10 days
# T3 sequence (P11712 whole entry): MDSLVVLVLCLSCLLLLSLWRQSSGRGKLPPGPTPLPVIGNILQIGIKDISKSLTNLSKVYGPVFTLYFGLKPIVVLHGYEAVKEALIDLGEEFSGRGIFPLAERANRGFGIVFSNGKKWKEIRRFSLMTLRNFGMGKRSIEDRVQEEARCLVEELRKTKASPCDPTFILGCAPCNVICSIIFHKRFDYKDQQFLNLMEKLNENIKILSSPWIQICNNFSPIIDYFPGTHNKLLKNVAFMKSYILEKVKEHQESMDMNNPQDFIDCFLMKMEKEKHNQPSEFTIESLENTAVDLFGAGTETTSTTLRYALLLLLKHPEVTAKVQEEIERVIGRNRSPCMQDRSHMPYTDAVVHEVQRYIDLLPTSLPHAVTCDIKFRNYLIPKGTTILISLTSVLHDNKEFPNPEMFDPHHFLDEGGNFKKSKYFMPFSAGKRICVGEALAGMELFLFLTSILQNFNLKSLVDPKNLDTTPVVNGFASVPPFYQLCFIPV
# T2 sequence (P33261 whole entry): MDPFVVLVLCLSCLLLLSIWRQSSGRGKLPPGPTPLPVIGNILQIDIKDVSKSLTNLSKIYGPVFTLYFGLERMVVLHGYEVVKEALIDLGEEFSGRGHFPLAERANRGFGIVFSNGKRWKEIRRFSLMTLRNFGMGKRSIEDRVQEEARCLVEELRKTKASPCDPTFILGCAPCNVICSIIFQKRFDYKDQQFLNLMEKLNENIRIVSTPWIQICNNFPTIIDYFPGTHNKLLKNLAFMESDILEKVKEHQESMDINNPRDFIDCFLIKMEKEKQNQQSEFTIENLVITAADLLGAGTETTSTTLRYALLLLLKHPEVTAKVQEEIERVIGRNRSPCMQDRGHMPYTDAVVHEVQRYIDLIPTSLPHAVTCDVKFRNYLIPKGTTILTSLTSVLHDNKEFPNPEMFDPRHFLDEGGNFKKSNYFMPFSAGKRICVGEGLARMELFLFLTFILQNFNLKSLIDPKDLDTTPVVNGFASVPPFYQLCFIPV
smiles,measurement,setting,value
"CCCNS(=O)(=O)Nc1ncnc(OCCOc2ncc(Br)cn2)c1-c1ccc(Br)cc1 [Macitentan, reference compound]",IC50,CYP1A2,37.4 µM
same,IC50,CYP2C19,31.7 µM
same,Inhibition on the isozyme CYP2C9 (in words),CYP2C9,moderate inhibition
COCCNS(=O)(=O)Nc1ncnc(OCCOc2ncc(Br)cn2)c1-c1ccc2c(c1)OCO2,Appearance,[1]; 0 day (initial),White powder
same,Crystal Form,[1]; 0 day (initial),Crystal Form A
same,Crystal Form A of the compound of formula (I) (%),[1]; 0 day (initial),99.2%
same,Total impurities (%),[1]; 0 day (initial),0.26%
same,Appearance,[1]; [3],White powder
same,Crystal Form,[1]; [3],Crystal Form A
same,Crystal Form A of the compound of formula (I) (%),[1]; [3],100.2%
same,Total impurities (%),[1]; [3],0.13%
same,Appearance,[1]; [4],White powder
same,Crystal Form,[1]; [4],Crystal Form A
same,Crystal Form A of the compound of formula (I) (%),[1]; [4],100.1%
same,Total impurities (%),[1]; [4],0.20%
same,Appearance,[1]; [5],White powder
same,Crystal Form A of the compound of formula (I) (%),[1]; [5],100.0%
same,Total impurities (%),[1]; [5],0.13%
same,Appearance,[1]; [6],White powder
same,Crystal Form A of the compound of formula (I) (%),[1]; [6],100.1%
same,Total impurities (%),[1]; [6],0.16%
same,Appearance,[1]; [7],White powder
same,Crystal Form A of the compound of formula (I) (%),[1]; [7],99.2%
same,Total impurities (%),[1]; [7],0.14%
same,Appearance,[1]; [8],White powder
same,Crystal Form A of the compound of formula (I) (%),[1]; [8],99.3%
same,Total impurities (%),[1]; [8],0.14%
same,Appearance,[1]; [9],White powder
same,Crystal Form,[1]; [9],Crystal Form A
same,Crystal Form A of the compound of formula (I) (%),[1]; [9],100.6%
same,Total impurities (%),[1]; [9],0.13%
same,Appearance,[1]; [10],White powder
same,Crystal Form,[1]; [10],Crystal Form A
same,Crystal Form A of the compound of formula (I) (%),[1]; [10],100.2%
same,Total impurities (%),[1]; [10],0.20%
same,Appearance,[1]; [11],White powder
same,Crystal Form A of the compound of formula (I) (%),[1]; [11],99.7%
same,Total impurities (%),[1]; [11],0.30%
same,Appearance,[1]; [12],White powder
same,Crystal Form A of the compound of formula (I) (%),[1]; [12],99.5%
same,Total impurities (%),[1]; [12],0.31%
same,Appearance,[1]; [13],White powder
same,Crystal Form A of the compound of formula (I) (%),[1]; [13],99.5%
same,Total impurities (%),[1]; [13],0.15%
same,Appearance,[1]; [14],White powder
same,Crystal Form A of the compound of formula (I) (%),[1]; [14],100.1%
same,Total impurities (%),[1]; [14],0.30%
same,Appearance,[1]; [15],White powder
same,Crystal Form A of the compound of formula (I) (%),[1]; [15],100.0%
same,Total impurities (%),[1]; [15],0.31%
same,Appearance,[1]; [16],White powder
same,Crystal Form A of the compound of formula (I) (%),[1]; [16],99.1%
same,Total impurities (%),[1]; [16],0.14%
same,Appearance,[1]; [17],White powder
same,Crystal Form A of the compound of formula (I) (%),[1]; [17],99.7%
same,Total impurities (%),[1]; [17],0.29%
same,Appearance,[1]; [18],White powder
same,Crystal Form A of the compound of formula (I) (%),[1]; [18],99.6%
same,Total impurities (%),[1]; [18],0.30%
same,Solid stability (conclusion in words),"[1]; high temperature, high humidity or strong light condition",good stability
same,"Crystalline (form by XRPD, 3 days later)","[2]; Acetonitrile, 25 °C",Crystal Form A
same,Status (3 days later),"[2]; Acetonitrile, 25 °C",Precipitation
same,"Crystalline (form by XRPD, 3 days later)","[2]; Acetonitrile, 50 °C",Crystal Form A
same,Status (3 days later),"[2]; Acetonitrile, 50 °C",Precipitation
same,"Crystalline (form by XRPD, 3 days later)","[2]; Tetrahydrofuran, 25 °C",Crystal Form A
same,Status (3 days later),"[2]; Tetrahydrofuran, 25 °C",Precipitation
same,"Crystalline (form by XRPD, 3 days later)","[2]; Tetrahydrofuran, 50 °C",Crystal Form A
same,Status (3 days later),"[2]; Tetrahydrofuran, 50 °C",Precipitation
same,Stability in solvents (conclusion in words),[2]; acetonitrile and tetrahydrofuran at both 25° C. and 50° C.,Experimental conclusion: Crystal Form A of the compound of formula (I) had good stability in acetonitrile and tetrahydrofuran at both 25 °C and 50 °C
